Laboratory results from US20250170159A1, “COMPOSITIONS COMPRISING STING AGONISTS AND METHODS OF USE FOR TREATING GLIOMA” (ImmunoGenesis, Inc., priority 2023, published 2025).

Experiments:
[1] = test system: spontaneous unresected gliomas; conditions: dogs; previously shown (ref 12); cited from earlier work
[2] = test system: QPP8 glioma cells; conditions: administered on days 14, 21, and 28
Source text: The total amount of immune cells was quantified based on all live CD45+ cells and specifically on CD11b+Ly6C+ expression of mono-MDSCs. […] Each dot represents an analyzed tumor or LN. FIG. 16E: Expression of immunosuppressive markers CD206 and CD163 spanning myeloid populations and as a function of treatment. FIG. 16F: Myeloid PD-L1 expression on various immune lineages in tumors and LNs.

[3] = test system: spontaneous unresected gliomas; experiment: Intratumoral delivery of STING agonist in spontaneous canine high-grade glioma; type: in vivo, dog
Experimental: A single ˜5 mm-diameter burr hole craniectomy was made at entry point determined by Brainsight Neuronavigation System.
A 100 uL-Hamilton syringe secured in a calibrated holder on an x-y stage containing 50 μL of Compound C at varying concentrations
Contrast enhancing target was selected using the MRI reconstruction.
Compound of Formula C was injected at a rate of 2 uL/minute.
Compound of Formula C was administered via repeated intratumoral injections up to 20 μg in 50 uL in a large animals (canines) with spontaneous unresected gliomas.

[4] = test system: human U87 glioma cells; experiment: Humanized mice implanted with human U87 glioma cells; type: in vivo, mouse
Source text: . (FIG. 15A) Multiplexed sequential immunofluorescence images of the STING expression at baseline in humanized mouse brain implanted with U87 glioma cells and collected at endpoint. The right image represents a high magnification of the white box drawn in the left image. The white arrows highlight CD31+STING+ vessels and green arrows highlight the CD163+STING+ macrophages. […] Scale bars: 500 μm (left panel) and 50 μm (right panel). A higher magnification image of a CD163+STING+ cell is represented at the upper right quadrant of the right image (scale bar: 20 μm). […] MFI, mean fluorescence intensity; h, human; TAM, tumor-associated macrophage; Mono, monocyte; PMN, […]; MDSC, myeloid-derived suppressor cell. […] The markers were assessed via Cytek Aurora flow cytometer and the CD45+CD11b+ population was analyzed for the indicated markers. *P<0.05; ** P<0.01; *** P<0.001; **** P<0.0001 by 2-tailed Student's t test (FIGS. 15E-H).
STING expression on human and murine glioma cells was analyzed (FIG. 15A). […] To evaluate whether this treatment induces an inflammatory response directed against the CNS, the mice were evaluated daily. […]

[5] = test system: GL261 glioma cells; conditions: FIG. 18B left panel; control MS 25 days
Source text: FIG. 18A: Schema of the treatment of immunocompetent mice that underwent i.e. implantation of either GL261 or CT-2A glioma cells. […] FIG. 18C: Schema of the treatment of immunocompetent mice that underwent i.e. implantation of either CT-2A or QPP8v (subclone) glioma cells. […] FIG. 18E: Multiplexed sequential immunofluorescence images of untreated CT-2A gliomas (n=3). […] White boxes outline the portion shown at higher magnification in the right column of images. Scale bars: 500 μm (left 3 columns) and 50 μm (right column).

[6] = test system: CT-2A glioma cells; conditions: FIG. 18B right panel; control MS 28 days
Experimental: As such, we evaluated synergy in the CT-2A and QPP8v immunocompetent murine glioma models. […] To visualize TME features that would be reflective of response, the CT-2A model was treated on day 7 and during the therapeutic window, the activation of the STING pathway (i.e., p-IRF3) and the immune infiltration were analyzed with multiplexed SeqIF imaging.

[7] = molecular target: T1, PD-1: PD-L1 (Homo sapiens, UniProt Q9NZQ7); experiment: PD-1 pathway blockade reporter cell assay, PD-L1+ cells; type: cell-based; conditions: FIG. 9
T1 construct: expressed in transfected cells; host or cells: PD-1 expressing effector cells and PD-L1+ artificial antigen presenting cells
T1 sequence (Q9NZQ7 19-290): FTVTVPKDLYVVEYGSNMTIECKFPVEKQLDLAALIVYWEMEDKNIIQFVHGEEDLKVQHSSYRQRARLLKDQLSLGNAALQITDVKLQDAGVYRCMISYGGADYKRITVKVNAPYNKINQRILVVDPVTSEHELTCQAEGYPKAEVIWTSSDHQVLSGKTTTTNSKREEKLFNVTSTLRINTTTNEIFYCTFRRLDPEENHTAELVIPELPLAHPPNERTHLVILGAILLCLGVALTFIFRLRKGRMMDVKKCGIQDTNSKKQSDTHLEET
Experimental: (§1) A dose range of 50.000-0.015 nM was tested against PD-L1+ cells (FIG. 9A), PD-L2+ cells (FIG. 9B), and a 50:50 mixture of PD-L1+ and PD-L2+ cells (FIG. 9C). Nonlinear regression was used to generate best-fit curves in GraphPad Prism.
(§2) The ability of Ab-27907 to interrupt the PD-1 pathway through binding of the ligands PD-L1 and PD-L2 was tested in a reporter cell system. In this assay, PD-1 expressing effector cells are incubated with artificial antigen presenting cells expressing PD-L1 or PD-L2 with a T cell receptor (TCR). Without any antibodies, luminescence activity is low, as PD-1 binds its ligands, preventing TCR engagement and production of luciferase.

[8] = molecular target: T2, PD-1: PD-L2 (Homo sapiens, UniProt Q9BQ51); experiment: PD-1 pathway blockade reporter cell assay, PD-L2+ cells; type: cell-based; conditions: FIG. 9
T2 construct: expressed in transfected cells; host or cells: PD-1 expressing effector cells and PD-L2+ artificial antigen presenting cells
T2 sequence (Q9BQ51 20-273): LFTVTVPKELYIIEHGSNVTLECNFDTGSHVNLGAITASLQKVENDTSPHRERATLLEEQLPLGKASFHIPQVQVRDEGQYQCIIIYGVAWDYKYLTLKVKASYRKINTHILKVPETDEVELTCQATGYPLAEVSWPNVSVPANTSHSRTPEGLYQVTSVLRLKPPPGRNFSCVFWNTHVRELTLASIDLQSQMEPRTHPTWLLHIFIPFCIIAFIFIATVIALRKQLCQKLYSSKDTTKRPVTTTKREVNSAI
Experimental: as §1, §2

[9] = test system: U2940 human B-cell lymphoma, 8505C human thyroid carcinoma, and B16F10-PDL2 murine melanoma tumor cell lines; experiment: ADCC reporter cell assay; type: cell-based; conditions: FIG. 10
Experimental: (§3) A dose range was tested in ADCC (FIGS. 10A, 10C, and 10E) and ADCP FIGS. 10B, 10C, and 10F) assays against U2940 human B-cell lymphoma (FIGS. 10A and 10B), 8505C human thyroid carcinoma (FIGS. 10C and 10D), and B16F10-PDL2 murine melanoma (FIGS. 10E, and 10F) tumor cell lines.

[10] = test system: U2940 human B-cell lymphoma, 8505C human thyroid carcinoma, and B16F10-PDL2 murine melanoma tumor cell lines; experiment: ADCP reporter cell assay; type: cell-based; conditions: FIG. 10
Experimental: as §3

[11] = test system: TS/A tumor; experiment: TS/A mouse model of mammary carcinoma; conditions: versus control group
[12] = test system: B16F10-PDL2 tumor; experiment: B16F10-PDL2 melanoma tumor-bearing mice; conditions: monotherapy, first 2 weeks
Source text: Left: Mean±SEM tumor volume (mm^3) is plotted on the y-axis against days post tumor inoculation on the x-axis. Right: Kaplan Meier plots of survival.

Nc1ncnc2c1ccn2[C@@H]1O[C@@H]2COP(=O)(S)O[C@@H]3[C@H](O)[C@@H](COP(=O)(S)O[C@H]2[C@H]1O)O[C@H]3n1cnc2c(N)ncnc21 (stereo partly drawn) [Compound 8779]
radiographic regression in spontaneously arising glioblastomas [1]: induces radiographic regression
therapeutic outcome [2]: curative
median survival (MS) ([2]; control MS=103 days): undefined

Nc1ncnc2c1ccn2[C@@H]1O[C@@H]2COP(=O)(S)O[C@@H]3[C@H](O)[C@@H](COP(=O)(S)O[C@H]2[C@H]1O)O[C@H]3n1cnc2c(N)ncnc21 (stereo partly drawn) [Compound C]
radiographic responses in spontaneously arising high-grade gliomas ([3]; dog, single injection): can produce radiographic responses
MTD ([3]; repeated intratumoral injections in 50 uL, canines with unresected gliomas): 15 to 20 µg

Nc1ncnc2c1ncn2[C@@H]1O[C@@H]2COP(O)(=S)O[C@@H]3C(O)[C@@H](COP(O)(=S)O[C@H]2[C@H]1O)O[C@H]3n1cnc2c(N)ncnc21 (stereo partly drawn) [MLRR-S2-CDA, reference compound]
survival of U87 tumor-bearing animals ([4]; both P<0.0001): significantly extended survival
median survival (MS) ([4]; treated on days 5, 10, and 15, control MS 26.5 days): 35 days

C[C@H](NC(=O)/C(C#N)=C/c1cccc(Br)n1)c1ccccc1 [WP1066, reference compound]
median survival (MS) [5]: 30 days
median survival (MS) [6]: 28 days

B1: Ab-27907: dual functioning PD-L1/PD-L2 monoclonal antibody; Fc point mutations enhance cell-mediated effector functions (antibody, V domains shown)
VH: QVQLVESGGGVIQPGRSLRLSCAASGFTFSAYLMHWVRQAPGKGLEWVAAIGYDGMNKYYADSVKGRFTISRDNSKNTLYLQMNSLRAEDTAVYYCARAGIEYSYAYTDYWGQGTLVTVSS
VL: EIVLTQSPGTLSLSPGERATLSCRASQFVYSSDLAWYQQKPGQAPRLLIYGASARAAGIPDRFSGSGSGTDFTLTISRLEPEDFAVYYCMQFGWWPPRTFGGGTKVEIK
blockade of PD-1: PD-L1 [7]: blocks PD-1: PD-L1 as well as pembrolizumab
blockade of PD-1: PD-L2 [8]: additionally blocks PD-1: PD-L2
capacity to induce ADCC [9]: robust activity
capacity to induce ADCP [10]: robust activity
survival [11]: significant extended survival
tumor growth [12]: significantly inhibited tumor growth
